Measurements: PMC7828211, “LysM Receptor-Like Kinase LYK9 of Pisum Sativum L. May Regulate Plant Responses to Chitooligosaccharides Differing in Structure” (International Journal of Molecular Sciences, 2021)
Read-outs that look alike come from different tables or passages of the source.

Legend:
PsLYK9-ECD = molecular target: T1, PsLYK9-ECD (Lathyrus oleraceus, UniProt A0A9D5AD18); experiment: microscale thermophoresis; assay type: binding; conditions: 50 mM Tris pH 7.4, 10 mM MgCl2, 150 mM NaCl, 0.05% Tween 20, 25 °C; 20 nM RED-tris-NTA labelled protein; read-out: Kd, μM (±SD)
T1 construct: gene KIW84_053210; corresponds to residues 31-235), GP67 signal in vector, 6xHis tag, Sf9 cells, predicted 23 kDa, about 35 kDa on blot; RED-tris-NTA labelled
T1 sequence (A0A9D5AD18 26-230): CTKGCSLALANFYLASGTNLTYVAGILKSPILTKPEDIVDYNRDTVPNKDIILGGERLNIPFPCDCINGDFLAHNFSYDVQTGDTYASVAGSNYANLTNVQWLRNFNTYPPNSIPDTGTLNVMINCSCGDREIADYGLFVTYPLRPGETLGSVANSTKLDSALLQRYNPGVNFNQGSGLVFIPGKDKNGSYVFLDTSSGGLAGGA
From the text: microscale thermophoresis on PsLYK9-ECD

PsLYR4-ECD = molecular target: T2, PsLYR4-ECD; experiment: microscale thermophoresis; assay type: binding, Pisum sativum; conditions: 50 mM Tris pH 7.4, 10 mM MgCl2, 150 mM NaCl, 0.05% Tween 20, 25 °C, 20 nM RED-tris-NTA labelled protein
T2 construct: gene LYR4; corresponds to residues 8-257), GP67 signal in vector, 6xHis tag, Sf9 cells, predicted 27 kDa, about 32 kDa on blot; RED-tris-NTA labelled
From the text: microscale thermophoresis on PsLYR4-ECD

Kd (PsLYK9-ECD) [µM]	Kd (PsLYR4-ECD; read-out: Kd, μM (±SD)) [µM]	Kd (PsLYR4-ECD; read-out: Kd) [µM]	Compound
2.1 ± 0.6	–	–	CC(=O)N[C@H]1[C@H](O[C@H]2[C@H](O)[C@@H](NC(C)=O)C(O)O[C@@H]2CO)O[C@H](CO)[C@@H](O[C@@H]2O[C@H](CO)[C@@H](O[C@@H]3O[C@H](CO)[C@@H](O)[C@H](O)[C@H]3NC(C)=O)[C@H](O)[C@H]2NC(C)=O)[C@@H]1O (stereo partly shown) [CO4]
5 ± 1.9	–	–	CC(=O)N[C@H]1[C@H](O[C@H]2[C@H](O)[C@@H](NC(C)=O)[C@H](O[C@H]3[C@H](O)[C@@H](NC(C)=O)C(O)O[C@@H]3CO)O[C@@H]2CO)O[C@H](CO)[C@@H](O[C@@H]2O[C@H](CO)[C@@H](O[C@@H]3O[C@H](CO)[C@@H](O)[C@H](O)[C@H]3NC(C)=O)[C@H](O)[C@H]2NC(C)=O)[C@@H]1O (stereo partly shown) [CO5]

The remaining lines, values behind:

Compound	Kd (PsLYK9-ECD) [µM]	Kd (PsLYR4-ECD; read-out: Kd, μM (±SD)) [µM]	Kd (PsLYR4-ECD; read-out: Kd) [µM]
N[C@H]1[C@H](O[C@H]2[C@H](O)[C@@H](N)[C@H](O[C@H]3[C@H](O)[C@@H](N)[C@H](O[C@H]4[C@H](O)[C@@H](N)[C@H](O[C@H]5[C@H](O)[C@@H](N)C(O)O[C@@H]5CO)O[C@@H]4CO)O[C@@H]3CO)O[C@@H]2CO)O[C@H](CO)[C@@H](O)[C@@H]1O (stereo partly shown) [CO5-DA]	76 ± 25	45 ± 20	–
N[C@H]1[C@H](O[C@H]2[C@H](O)[C@@H](N)[C@H](O[C@H]3[C@H](O)[C@@H](N)[C@H](O[C@H]4[C@H](O)[C@@H](N)[C@H](O[C@H]5[C@H](O)[C@@H](N)[C@H](O[C@H]6[C@H](O)[C@@H](N)C(O)O[C@@H]6CO)O[C@@H]5CO)O[C@@H]4CO)O[C@@H]3CO)O[C@@H]2CO)O[C@H](CO)[C@@H](O)[C@@H]1O (stereo partly shown) [CO6-DA]	42 ± 23	22 ± 11	–
N[C@H]1[C@H](O[C@H]2[C@H](O)[C@@H](N)[C@H](O[C@H]3[C@H](O)[C@@H](N)[C@H](O[C@H]4[C@H](O)[C@@H](N)[C@H](O[C@H]5[C@H](O)[C@@H](N)[C@H](O[C@H]6[C@H](O)[C@@H](N)[C@H](O[C@H]7[C@H](O)[C@@H](N)C(O)O[C@@H]7CO)O[C@@H]6CO)O[C@@H]5CO)O[C@@H]4CO)O[C@@H]3CO)O[C@@H]2CO)O[C@H](CO)[C@@H](O)[C@@H]1O (stereo partly shown) [CO7-DA]	31 ± 11	19 ± 13	–
CO8-DA	26 ± 15	–	8 ± 5
